Laboratory results: the kinase profiling compilation of Christmann-Franck et al. (2016)
One block for each molecule: values may come before it.

Columns and labels:
Test in all cases: Caliper, Mobility shift assay off-chip
[1] = molecular target: MERTK (human) (UniProt Q12866)
[2] = molecular target: PDPK1 (human) (UniProt O15530)
[3] = molecular target: IRAK1 (human) (UniProt P51617)
[4] = molecular target: PRKCZ (human) (UniProt Q05513)
[5] = molecular target: INSR (human) (UniProt P06213)
[6] = molecular target: PKN2 (human) (UniProt Q16513)
[7] = molecular target: PRKCB1 (human) (UniProt P05771)
[8] = molecular target: FES (human) (UniProt P07332)
[9] = molecular target: NLK (human) (UniProt Q9UBE8)
[10] = molecular target: DDR2 (human) (UniProt Q16832)
[11] = molecular target: EPHA1 (human) (UniProt P21709)
[12] = molecular target: DYRK2 (human) (UniProt Q92630)
[13] = molecular target: GCK (human) (UniProt Q12851)
[14] = molecular target: CSNK1D (human) (UniProt P48730)
[15] = molecular target: MARK2 (human) (UniProt Q7KZI7)
[16] = molecular target: PRKCE (human) (UniProt Q02156)
[17] = molecular target: CHUK (human) (UniProt O15111)
[18] = molecular target: STK11 (human) (UniProt Q15831)
[19] = molecular target: FYN (human) (UniProt P06241)
[20] = molecular target: ACVR1B (human) (UniProt P36896)
[21] = molecular target: CAMK2D (human) (UniProt Q13557)
[22] = molecular target: CAMK2B (human) (UniProt Q13554)
[23] = molecular target: CDC42BPB (human) (UniProt Q9Y5S2)
[24] = molecular target: MAP3K9 (human) (UniProt P80192)
[25] = molecular target: MAP3K5 (human) (UniProt Q99683)
[26] = molecular target: BRSK1 (human) (UniProt Q8TDC3)
[27] = molecular target: TYRO3 (human) (UniProt Q06418)
[28] = system: ABL1 (human), P00519 [T315I]
[29] = molecular target: MARK1 (human) (UniProt Q9P0L2)
[30] = molecular target: HIPK1 (human) (UniProt Q86Z02)
[31] = molecular target: CSNK2A2 (human) (UniProt P19784)
[32] = system: CHEK2 (human), O96017 [I157T]
[33] = molecular target: MUSK (human) (UniProt O15146)
[34] = molecular target: EEF2K (human) (UniProt O00418)
[35] = molecular target: CDK7 CCNH MNAT1 (human) (UniProt P50613+P51948+P51946)
[36] = molecular target: CDK9 CCNT1 (human) (UniProt O60563+P50750)
[37] = molecular target: PDGFRB (human) (UniProt P09619)
[38] = molecular target: EPHB1 (human) (UniProt P54762)
[39] = molecular target: SYK (human) (UniProt P43405)
[40] = molecular target: IRAK4 (human) (UniProt Q9NWZ3)
[41] = system: KIT (human), P10721 [D816V]

Sequence of MERTK (human) (Q12866 whole entry, looked up): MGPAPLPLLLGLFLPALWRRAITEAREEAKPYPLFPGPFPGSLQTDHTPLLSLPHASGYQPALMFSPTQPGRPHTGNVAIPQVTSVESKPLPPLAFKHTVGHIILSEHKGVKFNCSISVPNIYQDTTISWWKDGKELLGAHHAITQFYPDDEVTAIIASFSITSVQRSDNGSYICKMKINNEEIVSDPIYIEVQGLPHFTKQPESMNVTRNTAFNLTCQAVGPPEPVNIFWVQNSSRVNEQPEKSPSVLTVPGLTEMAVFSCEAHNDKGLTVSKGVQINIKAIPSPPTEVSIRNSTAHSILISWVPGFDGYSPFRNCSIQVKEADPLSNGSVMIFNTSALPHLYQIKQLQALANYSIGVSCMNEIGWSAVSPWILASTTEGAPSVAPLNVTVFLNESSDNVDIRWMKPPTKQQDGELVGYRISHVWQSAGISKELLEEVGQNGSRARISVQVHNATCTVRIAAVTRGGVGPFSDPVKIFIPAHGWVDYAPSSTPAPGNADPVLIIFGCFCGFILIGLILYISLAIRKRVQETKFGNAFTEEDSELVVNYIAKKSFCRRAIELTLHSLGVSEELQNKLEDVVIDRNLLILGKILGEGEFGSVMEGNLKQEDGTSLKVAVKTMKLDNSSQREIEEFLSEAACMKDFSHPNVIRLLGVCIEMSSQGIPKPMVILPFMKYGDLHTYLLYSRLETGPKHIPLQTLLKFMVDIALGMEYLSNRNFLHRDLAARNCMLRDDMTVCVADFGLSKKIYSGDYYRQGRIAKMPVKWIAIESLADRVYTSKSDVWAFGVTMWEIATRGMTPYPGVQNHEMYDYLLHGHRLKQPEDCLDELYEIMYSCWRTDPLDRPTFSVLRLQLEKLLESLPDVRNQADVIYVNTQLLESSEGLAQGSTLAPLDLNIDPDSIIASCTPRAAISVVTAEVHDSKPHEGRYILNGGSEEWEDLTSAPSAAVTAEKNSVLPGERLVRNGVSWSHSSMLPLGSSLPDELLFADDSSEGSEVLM
Sequence of PDPK1 (human) (O15530 whole entry, looked up): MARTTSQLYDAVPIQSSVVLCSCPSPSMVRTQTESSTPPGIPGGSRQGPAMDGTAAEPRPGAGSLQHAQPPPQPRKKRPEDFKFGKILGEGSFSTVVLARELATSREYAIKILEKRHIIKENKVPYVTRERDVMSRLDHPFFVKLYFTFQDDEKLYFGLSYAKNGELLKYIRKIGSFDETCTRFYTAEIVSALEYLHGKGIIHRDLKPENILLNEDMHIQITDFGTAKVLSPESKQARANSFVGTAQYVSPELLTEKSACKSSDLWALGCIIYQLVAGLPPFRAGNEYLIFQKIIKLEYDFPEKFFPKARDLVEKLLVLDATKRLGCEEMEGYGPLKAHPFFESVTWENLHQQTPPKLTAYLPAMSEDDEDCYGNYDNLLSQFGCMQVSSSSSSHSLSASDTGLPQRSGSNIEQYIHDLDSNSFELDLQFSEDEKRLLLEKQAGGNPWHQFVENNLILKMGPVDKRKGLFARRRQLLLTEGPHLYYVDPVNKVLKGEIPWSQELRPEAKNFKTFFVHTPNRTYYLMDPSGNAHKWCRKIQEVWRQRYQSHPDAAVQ
Sequence of CDK7 CCNH MNAT1 (human) (P50613 whole entry, looked up): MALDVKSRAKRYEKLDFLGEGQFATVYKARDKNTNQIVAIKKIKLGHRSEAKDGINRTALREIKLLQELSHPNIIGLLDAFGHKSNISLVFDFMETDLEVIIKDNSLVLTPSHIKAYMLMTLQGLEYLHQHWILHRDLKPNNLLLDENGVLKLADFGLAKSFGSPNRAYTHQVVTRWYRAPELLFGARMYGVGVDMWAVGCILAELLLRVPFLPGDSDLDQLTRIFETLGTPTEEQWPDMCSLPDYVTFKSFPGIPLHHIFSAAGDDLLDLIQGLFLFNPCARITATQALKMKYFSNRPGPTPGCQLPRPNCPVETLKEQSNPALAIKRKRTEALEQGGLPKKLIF
Sequence of CDK7 CCNH MNAT1 (human) (P51946 whole entry, looked up): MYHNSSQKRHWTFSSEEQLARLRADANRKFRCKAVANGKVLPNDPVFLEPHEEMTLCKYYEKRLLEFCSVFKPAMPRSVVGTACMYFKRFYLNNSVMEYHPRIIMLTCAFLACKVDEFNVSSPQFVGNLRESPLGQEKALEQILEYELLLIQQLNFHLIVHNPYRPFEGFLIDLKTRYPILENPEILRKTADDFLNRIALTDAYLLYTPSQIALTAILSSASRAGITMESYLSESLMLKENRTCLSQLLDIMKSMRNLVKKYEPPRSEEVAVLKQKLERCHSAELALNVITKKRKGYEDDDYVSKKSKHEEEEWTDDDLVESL
Sequence of CDK7 CCNH MNAT1 (human) (P51948 whole entry, looked up): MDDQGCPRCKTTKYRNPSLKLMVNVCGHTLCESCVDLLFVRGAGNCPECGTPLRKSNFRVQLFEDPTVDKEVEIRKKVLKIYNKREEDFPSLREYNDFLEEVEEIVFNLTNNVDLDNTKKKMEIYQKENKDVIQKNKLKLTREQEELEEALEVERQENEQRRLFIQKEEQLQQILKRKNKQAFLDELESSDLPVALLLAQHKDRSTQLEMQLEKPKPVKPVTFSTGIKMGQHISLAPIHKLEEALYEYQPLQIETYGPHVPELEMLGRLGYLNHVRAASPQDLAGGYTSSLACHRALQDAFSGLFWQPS
Sequence of PRKCB1 (human) (P05771 whole entry, looked up): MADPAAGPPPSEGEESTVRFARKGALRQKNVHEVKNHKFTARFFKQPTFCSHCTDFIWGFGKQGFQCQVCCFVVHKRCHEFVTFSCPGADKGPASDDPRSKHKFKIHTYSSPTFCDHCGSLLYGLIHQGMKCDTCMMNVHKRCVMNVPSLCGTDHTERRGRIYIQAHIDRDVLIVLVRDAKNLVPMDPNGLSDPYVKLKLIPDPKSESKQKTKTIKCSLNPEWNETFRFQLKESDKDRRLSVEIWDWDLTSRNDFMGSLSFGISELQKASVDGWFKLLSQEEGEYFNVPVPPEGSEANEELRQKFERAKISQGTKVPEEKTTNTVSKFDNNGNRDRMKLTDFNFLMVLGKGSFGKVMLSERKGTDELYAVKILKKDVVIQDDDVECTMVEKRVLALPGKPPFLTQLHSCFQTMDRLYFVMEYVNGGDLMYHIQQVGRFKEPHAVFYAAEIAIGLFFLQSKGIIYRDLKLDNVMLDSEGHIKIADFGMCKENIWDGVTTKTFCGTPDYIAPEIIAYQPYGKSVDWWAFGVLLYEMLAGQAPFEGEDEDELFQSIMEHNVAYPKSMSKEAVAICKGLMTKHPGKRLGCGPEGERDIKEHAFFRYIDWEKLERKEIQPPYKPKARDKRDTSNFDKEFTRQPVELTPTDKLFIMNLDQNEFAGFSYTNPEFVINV
Sequence of NLK (human) (Q9UBE8 whole entry, looked up): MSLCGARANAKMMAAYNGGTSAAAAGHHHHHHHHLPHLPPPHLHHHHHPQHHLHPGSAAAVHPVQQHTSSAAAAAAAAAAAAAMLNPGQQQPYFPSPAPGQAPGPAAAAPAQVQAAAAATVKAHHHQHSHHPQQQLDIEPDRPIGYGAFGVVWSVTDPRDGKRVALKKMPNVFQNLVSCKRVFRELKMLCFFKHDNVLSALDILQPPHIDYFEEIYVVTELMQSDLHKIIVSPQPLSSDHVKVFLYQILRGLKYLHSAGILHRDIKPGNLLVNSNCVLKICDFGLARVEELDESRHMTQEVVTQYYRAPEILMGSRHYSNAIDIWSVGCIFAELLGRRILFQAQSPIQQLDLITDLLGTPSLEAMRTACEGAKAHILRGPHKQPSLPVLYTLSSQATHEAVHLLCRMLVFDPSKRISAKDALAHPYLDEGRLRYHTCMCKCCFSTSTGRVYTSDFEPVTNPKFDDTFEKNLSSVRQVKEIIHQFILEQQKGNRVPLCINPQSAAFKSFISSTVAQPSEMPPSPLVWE
Sequence of EEF2K (human) (O00418 whole entry, looked up): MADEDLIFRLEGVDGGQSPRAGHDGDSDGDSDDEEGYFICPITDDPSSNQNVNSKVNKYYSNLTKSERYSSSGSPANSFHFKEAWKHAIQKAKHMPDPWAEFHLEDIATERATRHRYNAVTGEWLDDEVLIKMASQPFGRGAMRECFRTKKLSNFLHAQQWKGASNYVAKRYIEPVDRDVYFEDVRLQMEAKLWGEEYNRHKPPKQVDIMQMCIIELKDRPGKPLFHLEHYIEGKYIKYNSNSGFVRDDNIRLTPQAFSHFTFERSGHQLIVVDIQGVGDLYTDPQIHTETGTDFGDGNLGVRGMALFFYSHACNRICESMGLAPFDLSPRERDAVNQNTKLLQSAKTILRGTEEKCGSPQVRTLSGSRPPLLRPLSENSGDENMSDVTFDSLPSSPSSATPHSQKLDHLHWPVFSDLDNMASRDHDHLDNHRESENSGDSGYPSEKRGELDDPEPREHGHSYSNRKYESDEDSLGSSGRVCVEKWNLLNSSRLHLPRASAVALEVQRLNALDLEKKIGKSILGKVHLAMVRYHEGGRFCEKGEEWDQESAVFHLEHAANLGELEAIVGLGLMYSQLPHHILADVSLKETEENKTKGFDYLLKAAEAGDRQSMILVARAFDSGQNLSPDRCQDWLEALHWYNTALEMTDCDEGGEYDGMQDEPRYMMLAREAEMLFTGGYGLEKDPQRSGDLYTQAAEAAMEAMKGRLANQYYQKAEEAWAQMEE
Sequence of STK11 (human) (Q15831 whole entry, looked up): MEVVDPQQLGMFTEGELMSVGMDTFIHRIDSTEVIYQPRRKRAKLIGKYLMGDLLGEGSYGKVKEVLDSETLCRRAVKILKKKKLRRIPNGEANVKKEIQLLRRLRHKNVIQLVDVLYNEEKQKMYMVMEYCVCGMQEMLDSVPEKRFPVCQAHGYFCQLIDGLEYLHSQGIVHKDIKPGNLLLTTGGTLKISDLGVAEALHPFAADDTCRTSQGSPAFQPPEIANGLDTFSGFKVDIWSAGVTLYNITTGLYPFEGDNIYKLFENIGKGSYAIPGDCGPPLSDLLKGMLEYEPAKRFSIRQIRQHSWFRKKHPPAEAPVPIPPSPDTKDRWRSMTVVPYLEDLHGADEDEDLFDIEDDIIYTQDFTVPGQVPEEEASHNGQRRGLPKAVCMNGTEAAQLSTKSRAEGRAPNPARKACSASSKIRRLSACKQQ

residual activity ([1]; compound 10.0 µM): 28%
residual activity ([2]; compound 10.0 µM): 0%
SMILES: CC(C)(C)c1nc2c3ccc(F)cc3c3c(=O)[nH]ccc3c2[nH]1

residual activity ([3]; compound 1.0 µM): 99%
residual activity ([4]; compound 1.0 µM): 107%
residual activity ([5]; compound 1.0 µM): 91%
residual activity ([1]; compound 1.0 µM): 66%
residual activity ([6]; compound 1.0 µM): 63%
residual activity ([7]; compound 1.0 µM): 72%
residual activity ([8]; compound 1.0 µM): 96%
residual activity ([9]; compound 1.0 µM): 58%
residual activity ([10]; compound 1.0 µM): 113%
residual activity ([11]; compound 1.0 µM): 82%
residual activity ([12]; compound 1.0 µM): 97%
residual activity ([13]; compound 1.0 µM): 13%
residual activity ([14]; compound 1.0 µM): 94%
residual activity ([15]; compound 1.0 µM): 9%
residual activity ([16]; compound 1.0 µM): 84%
residual activity ([17]; compound 1.0 µM): 120%
residual activity ([18]; compound 1.0 µM): 108%
residual activity ([19]; compound 1.0 µM): 98%
residual activity ([20]; compound 1.0 µM): 99%
residual activity ([21]; compound 1.0 µM): 3%
residual activity ([2]; compound 1.0 µM): 5%
residual activity ([22]; compound 1.0 µM): 20%
residual activity ([23]; compound 1.0 µM): 113%
residual activity ([24]; compound 1.0 µM): 23%
residual activity ([25]; compound 1.0 µM): 65%
residual activity ([26]; compound 1.0 µM): 76%
residual activity ([27]; compound 1.0 µM): 84%
residual activity ([28]; compound 1.0 µM): 113%
residual activity ([29]; compound 1.0 µM): 2%
residual activity ([30]; compound 1.0 µM): 82%
residual activity ([31]; compound 1.0 µM): 109%
residual activity ([32]; compound 1.0 µM): 71%
residual activity ([33]; compound 1.0 µM): 89%
residual activity ([34]; compound 1.0 µM): 106%
residual activity ([35]; compound 1.0 µM): 75%
residual activity ([36]; compound 1.0 µM): 70%
residual activity ([37]; compound 1.0 µM): 97%
residual activity ([38]; compound 1.0 µM): 101%
residual activity ([39]; compound 1.0 µM): 66%
residual activity ([40]; compound 1.0 µM): 85%
residual activity ([41]; compound 1.0 µM): 76%
SMILES: O=C(NCCCNc1nc(Nc2cccc(NC(=O)N3CCCC3)c2)ncc1I)c1cccs1

residual activity ([3]; compound 10.0 µM): 58%
residual activity ([4]; compound 10.0 µM): 85%
residual activity ([5]; compound 10.0 µM): 95%
residual activity ([1]; compound 10.0 µM): 3%
residual activity ([6]; compound 10.0 µM): 13%
residual activity ([7]; compound 10.0 µM): 99%
residual activity ([8]; compound 10.0 µM): 69%
residual activity ([9]; compound 10.0 µM): 78%
residual activity ([10]; compound 10.0 µM): 57%
residual activity ([11]; compound 10.0 µM): 80%
residual activity ([12]; compound 10.0 µM): 86%
residual activity ([13]; compound 10.0 µM): 17%
residual activity ([14]; compound 10.0 µM): 35%
residual activity ([15]; compound 10.0 µM): 108%
residual activity ([16]; compound 10.0 µM): 81%
residual activity ([17]; compound 10.0 µM): 36%
residual activity ([18]; compound 10.0 µM): 104%
residual activity ([19]; compound 10.0 µM): 114%
residual activity ([20]; compound 10.0 µM): 18%
residual activity ([21]; compound 10.0 µM): 11%
residual activity ([2]; compound 10.0 µM): 43%
residual activity ([22]; compound 10.0 µM): 6%
residual activity ([23]; compound 10.0 µM): 111%
residual activity ([24]; compound 10.0 µM): 8%
residual activity ([25]; compound 10.0 µM): 77%
residual activity ([26]; compound 10.0 µM): 36%
residual activity ([27]; compound 10.0 µM): 19%
residual activity ([28]; compound 10.0 µM): 62%
residual activity ([29]; compound 10.0 µM): 86%
residual activity ([30]; compound 10.0 µM): 78%
residual activity ([31]; compound 10.0 µM): 90%
residual activity ([32]; compound 10.0 µM): 6%
residual activity ([33]; compound 10.0 µM): 99%
residual activity ([34]; compound 10.0 µM): 93%
residual activity ([35]; compound 10.0 µM): 73%
residual activity ([36]; compound 10.0 µM): 126%
residual activity ([37]; compound 10.0 µM): 77%
residual activity ([38]; compound 10.0 µM): 110%
residual activity ([39]; compound 10.0 µM): 33%
residual activity ([40]; compound 10.0 µM): 73%
residual activity ([41]; compound 10.0 µM): 92%
SMILES: COc1ccc(C#Cc2ccc3ncc4ncn(-c5ccc(CCN)cc5)c4c3c2)cc1
